Assay results from patent publication US12201632B2, “Levoketoconazole for treatment of congenital adrenal hyperplasia and primary aldosteronism” (Strongbridge Dublin Limited, priority 2018, dated 2025).

Experiments:
[1] = test system: ACTH independent hyperplasia cultures; test: Cortisol production in primary ACTH independent hyperplasia cultures; type: cell-based, human; details: ACTH independent hyperplasia no. 1, basal condition, 3 days
Procedure: To obtain primary cultures, adrenal specimens (adrenocortical adenomas, adrenal hyperplasias and adrenocortical carcinomas) were collected after adrenalectomy at the department of Surgery, Erasmus University Medical Center, Rotterdam, the Netherlands, between April 2016 and May 2018. The study was conducted under guidelines that have been approved by the Medical Ethics Committee of the Erasmus Medical Center and informed consent was obtained from all patients. Immediately after surgery, specimens were minced into small pieces of 2-3 mm^3, washed in culture medium and centrifuged for 5 minutes at 600 g. The tissue was stored overnight in culture medium at 4° C., where after the tissue was centrifuged again and the supernatant was removed. Fragments were dissociated using 10-25 ml collagenase type 1 (2 mg/ml: Sigma-Aldrich), followed by incubation at 37° C. for up to two hours. Ficoll (GE healthcare) density gradient separation was used once or twice as required in order to separate contaminating red blood cells from the tumor cells. Cell viability and cell amount were counted by trypan blue exclusion. Dissociated cells were plated at a density of 10^5 cells per well. […]
Cortisol concentrations were measured in the supernatant using a chemiluminescence immunoassay system (Immulite 2000XPi; Siemens DPC Inc., Los Angeles, Calif., USA). In addition, we carried out multi-steroid analysis by liquid chromatography/mass spectrometry (LC/MS-MS) to accurately quantify androstenedione, corticosterone, cortisol, 11-deoxycortisol, DHEA, DHEAS, progesterone, 17-hydroxyprogesterone, and testosterone. […] Steroids were quantified with respect to a calibration series, with internal standards. Steroids were quantified on a Xevo TQS LC-MS/MS (Waters Chromatography).
Statistical analysis was performed using Graphpad Prism 6.0 (Graphpad Software, San Diego, CA). […] Effects of both compounds on the steroid profile were measured as absolute change compared to control and compared using the Student's t-test. […]

[2] = test system: HAC15 cells; test: Steroid profile by LC/MS-MS in HAC15 cells; type: cell-based, Human; details: 0.5 μM
Procedure: Human adrenocortical carcinoma HAC15 and mouse corticotroph AtT20 cells were used, purchased as a kind gift by Dr. W. Rainey, and obtained from Dr. J. Tooze (European Organization for Molecular Biology), respectively. Both cell lines were cultured in 75 cm^2 flasks at 37° C. in a humidified incubator (Greiner Bio-One, Alphen a/d Rijn, the Netherlands) at 5% CO2. Dulbecco's Modified Eagle Medium F12 containing 5% fetal calf serum was used for HAC15, whereas AtT20 cells were cultured in Dulbecco's minimal essential medium (DMEM) supplemented with 10% fetal calf serum. Both mediums were supplemented with L-glutamine (2 mmol/L) and penicillin (10^5 U/L). Short tandem repeat (str) profiling using a Powerplex Kit (Promega, Leiden, the Netherlands) of HAC15 and AtT20 gave results consistent with the ATCC database, confirming the identity of both cell lines. Medium and supplements were obtained from Invitrogen, Breda, the Netherlands. Once a week, cells were harvested with trypsin (0.05%)-EDTA (0.53 mM) and resuspended in culture medium. Levoketoconazole (COR-003) and racemic ketoconazole (both from Cortendo AB) were dissolved in absolute ethanol (EtOH), according to manufacturer's instructions, and stored at −20° C. at a stock concentration of […]. At the start of each experiment, both drugs were freshly prepared and diluted in EtOH in the correct concentrations. Synacten (synthetic ACTH, Novartis Pharma A.G.) stock concentration was stored at 4° C. and dissolved in culture medium at the day of use. The final concentrations of ACTH were chosen based on a dose-response curve in HAC15 cells and previously reported studies in the literature. For HAC15, 200,000 and 100,000 cells were plated in 0.5 ml medium in 24 well plates for experiments of 1 and 3 days, respectively. For AtT20, cell amounts were 100,000 and 30,000. One day after seeding the HAC15 cells, the medium was refreshed and cells were treated 1 or 3 days in quadruplicate with levoketoconazole or racemic ketoconazole (0.05-5 μM), with or without 10 nM ACTH. To study effects of both compounds on pituitary AtT20 cells, concentrations of 0.1 to 10 μM of both drugs were used. Controls were vehicle treated. […] Media were collected after 1 or 3 days of incubation and stored at −20° C. until analysis. All cell culture experiments were carried out at least twice.
Cortisol concentrations were measured in the supernatant using a chemiluminescence immunoassay system (Immulite 2000XPi; Siemens DPC Inc., Los Angeles, Calif., USA). In addition, we carried out multi-steroid analysis by liquid chromatography/mass spectrometry (LC/MS-MS) to accurately quantify androstenedione, corticosterone, cortisol, 11-deoxycortisol, DHEA, DHEAS, progesterone, 17-hydroxyprogesterone, and testosterone. Concentrations that were tested on the LC/MS-MS were closest to 50% inhibition or maximal inhibition of cortisol as determined by the immunoassay. Steroids were quantified with respect to a calibration series, with internal standards. Steroids were quantified on a Xevo TQS LC-MS/MS (Waters Chromatography).
Statistical analysis was performed using Graphpad Prism 6.0 (Graphpad Software, San Diego, CA). Non-linear regression curve fitting program was used to calculate the half maximal inhibitory concentrations (IC50) on cortisol production. Effects of both compounds on the steroid profile were measured as absolute change compared to control and compared using the Student's t-test. When assessing differences between effects of both compounds, the percentage change was evaluated and compared in order to correct for differences in the vehicle treated control cells. Values of P<0.05 were considered statistically significant and data are presented as mean SEM.

[3] = HAC15, ACTH, 3 days, listed as LK

Q: Which “IC50 inhibition of cortisol production” value [1] does the source give for CC(=O)N1CCN(c2ccc(OC[C@@H]3CO[C@@](Cn4ccnc4)(c4ccc(Cl)cc4Cl)O3)cc2)CC1 (relative stereo) [levoketoconazole, 2S,4R cis-1-acetyl-4-[4-[[2-(2,4-dichlorophenyl)-2-(1H-imidazol-1-ylmethyl)-1,3-dioxolan-4-yl]methoxyl]phenyl]piperazine] here?
A: Ambiguous

Q: And the “total sum of decrease of steroids” value ([2]; HAC15, ACTH)?
A: −2,811 nmol/L

Q: And the “11-DOC absolute change vs ACTH stimulation with vehicle” value ([2]; HAC15, ACTH, 3 days)?
A: -1524 nmol/L

Q: And the “11-DOC percentage change vs ACTH stimulation with vehicle” value ([2]; HAC15, ACTH, 3 days)?
A: −47%

Q: And the “17-OHP absolute change vs ACTH stimulation with vehicle” value ([2]; HAC15, ACTH, 3 days)?
A: -24.73 nmol/L

Q: And the “17-OHP percentage change vs ACTH stimulation with vehicle” value ([2]; HAC15, ACTH, 3 days)?
A: (−47%)

Q: What about the “Androstenedione absolute change vs ACTH stimulation with vehicle” value ([2]; HAC15, ACTH, 3 days) of the same compound?
A: -943.7 nmol/L

Q: And the “Androstenedione percentage change vs ACTH stimulation with vehicle” value ([2]; HAC15, ACTH, 3 days)?
A: (−52%)

Q: And the “Corticosterone absolute change vs ACTH stimulation with vehicle” value ([2]; HAC15, ACTH, 3 days)?
A: -1.063 nmol/L

Q: And the “Corticosterone percentage change vs ACTH stimulation with vehicle” value ([2]; HAC15, ACTH, 3 days)?
A: (−36%)

Q: What about the “Cortisol absolute change vs ACTH stimulation with vehicle” value ([2]; HAC15, ACTH, 3 days) of the same compound?
A: -13.81 nmol/L

Q: And the “Cortisol percentage change vs ACTH stimulation with vehicle” value ([2]; HAC15, ACTH, 3 days)?
A: −31%

Q: And the “DHEA absolute change vs ACTH stimulation with vehicle” value ([2]; HAC15, ACTH, 3 days)?
A: -13.81 nmol/L

Q: And the “DHEA percentage change vs ACTH stimulation with vehicle” value ([2]; HAC15, ACTH, 3 days)?
A: (−31%)

Q: What about the “DHEAS absolute change vs ACTH stimulation with vehicle” value ([2]; HAC15, ACTH, 3 days) of the same compound?
A: -250.1 nmol/L

Q: What about the “DHEAS percentage change vs ACTH stimulation with vehicle” value ([2]; HAC15, ACTH, 3 days) of the same compound?
A: (−43%)

Q: What about the “Prog absolute change vs ACTH stimulation with vehicle” value ([2]; HAC15, ACTH, 3 days) of the same compound?
A: -2.163 nmol/L

Q: What about the “Prog percentage change vs ACTH stimulation with vehicle” value ([2]; HAC15, ACTH, 3 days) of the same compound?
A: (−64%)

Q: And the “Testosterone absolute change vs ACTH stimulation with vehicle” value ([2]; HAC15, ACTH, 3 days)?
A: -30.52 nmol/L

Q: And the “Testosterone percentage change vs ACTH stimulation with vehicle” value ([2]; HAC15, ACTH, 3 days)?
A: (−71%)

Q: What about the “11-DOC absolute change vs ACTH stimulation with vehicle” value [2, 3] of the same compound?
A: -1524 nmol/L

Q: What about the “11-DOC percentage change vs ACTH stimulation with vehicle” value [2, 3] of the same compound?
A: (−47%)

Q: What about the “Cortisol absolute change vs ACTH stimulation with vehicle” value [2, 3] of the same compound?
A: -21.80 nmol/L

Q: And the “Cortisol percentage change vs ACTH stimulation with vehicle” value [2, 3]?
A: (−65%)

Q: What about the “11-DOC absolute change vs control” value ([2]; HAC15, Basal, 3 days) of the same compound?
A: -1129 nmol/L

Q: What about the “11-DOC percentage change vs control” value ([2]; HAC15, Basal, 3 days) of the same compound?
A: (−48%)

Q: And the “17-OHP absolute change vs control” value ([2]; HAC15, Basal, 3 days)?
A: -26.89 nmol/L

Q: What about the “17-OHP percentage change vs control” value ([2]; HAC15, Basal, 3 days) of the same compound?
A: (−57%)

Q: What about the “Androstenedione absolute change vs control” value ([2]; HAC15, Basal, 3 days) of the same compound?
A: -1105 nmol/L

Q: What about the “Androstenedione percentage change vs control” value ([2]; HAC15, Basal, 3 days) of the same compound?
A: (−56%)

Q: And the “Corticosterone absolute change vs control” value ([2]; HAC15, Basal, 3 days)?
A: -0.2938 nmol/L

Q: What about the “Corticosterone percentage change vs control” value ([2]; HAC15, Basal, 3 days) of the same compound?
A: (−39%)

Q: And the “Cortisol absolute change vs control” value ([2]; HAC15, Basal, 3 days)?
A: -16.36 nmol/L

Q: And the “Cortisol percentage change vs control” value ([2]; HAC15, Basal, 3 days)?
A: (−69%)

Q: What about the “DHEA absolute change vs control” value ([2]; HAC15, Basal, 3 days) of the same compound?
A: -31.04 nmol/L

Q: What about the “DHEA percentage change vs control” value ([2]; HAC15, Basal, 3 days) of the same compound?
A: (−44%)

Q: What about the “DHEAS absolute change vs control” value ([2]; HAC15, Basal, 3 days) of the same compound?
A: -658.6 nmol/L

Q: What about the “DHEAS percentage change vs control” value ([2]; HAC15, Basal, 3 days) of the same compound?
A: (−56%)

Q: What about the “Prog absolute change vs control” value ([2]; HAC15, Basal, 3 days) of the same compound?
A: -0.9125 nmol/L

Q: And the “Prog percentage change vs control” value ([2]; HAC15, Basal, 3 days)?
A: (−55%)

Q: And the “Testosterone absolute change vs control” value ([2]; HAC15, Basal, 3 days)?
A: -39.19 nmol/L

Q: What about the “Testosterone percentage change vs control” value ([2]; HAC15, Basal, 3 days) of the same compound?
A: (−64%)

Q: What about the “total sum of decrease of steroids” value ([2]; HAC15, basal) of the same compound?
A: −3,007 nmol/L
